Source: PMC9307946, “A peptoid-based inhibitor of protein arginine methyltransferase 1 (PRMT1) induces apoptosis and autophagy in cancer cells” (The Journal of Biological Chemistry, 2022)
Where “and” joins values, the source holds several entries; their conditions need not be identical. Identical values can stand only once. *1 amine or outer side, *2 acyl side, *3 side chain or, on linkers, in order; H or OH if unused. Where a SMILES comes first, the peptide text is derived from it. [ ]: non-standard residue; d: D form. X2 = N=C(CCl)NCCC[C@H](N[*:1])C(=O)[*:2]; X1 = N=C(CCl)NCCCN(CC(=O)[*:2])[*:1]; Gly(N-CH2CH2OH) = O=C(O)CNCCO; Nleu = CC(C)CNCC(=O)O; Nlys = NCCCCNCC(=O)O; Sar = CNCC(=O)O

Columns and labels:
[1] = biological target: T1, PRMT1 (Homo sapiens, UniProt Q99873); assay: MTase-Glo methyltransferase IC50 assay, PRMT1; format: biochemical; details: for IC50: 200 nM PRMT1, AcH4-21 substrate 225 μM
T1 construct: made in house
Procedure: (§1) The IC50 value for the peptoid inhibitors were measured using the MTase-Glo methyltransferase assay kit (Promega). The peptoid was incubated in assay buffer (20 mM Tris-HCl pH 8.0, 50 mM NaCl, 1 mM EDTA, 3 mM MgCl2, 0.1 mg/ml BSA, 1 mM DTT) and […] (0–1000 μM). After a preincubation of 10 min, 200 nM PRMT1 or PRMT5 was added to the assay before adding in the substrate (AcH4-21) at 225 μM. After 15 min, the reaction was quenched with 0.5% TFA (0.1% final concentration), vortexed, and incubated for an additional 10 min. To detect product formation, the MTase-Glo reagent was added for 30 min at rt, followed by addition of the MTase-Glo detection solution for an additional 30 min. Finally, the luminescence signal was measured using a BioTek Synergy two multi-mode microplate reader. The values were converted to product concentration using a standard curve of SAH (0–5 μM). The IC50 values were determined using Equation 1 and fit to a curve using GraFit 7.03.(1) FractionalactivityofPRMT=1/(1+([I]/IC50)) IC50 is the concentration of inhibitor resulting in 50% PRMT activity, and [I] is the inhibitor concentration.

[2] = biological target: T2, PRMT5 (Homo sapiens, UniProt O14744); assay: MTase-Glo methyltransferase IC50 assay, PRMT5; format: biochemical; details: 200 nM PRMT5, AcH4-21 substrate 225 μM
T2 construct: made in house
Procedure: as §1

T1 sequence (Q99873 1-353 isoform Q99873-3, species assumed): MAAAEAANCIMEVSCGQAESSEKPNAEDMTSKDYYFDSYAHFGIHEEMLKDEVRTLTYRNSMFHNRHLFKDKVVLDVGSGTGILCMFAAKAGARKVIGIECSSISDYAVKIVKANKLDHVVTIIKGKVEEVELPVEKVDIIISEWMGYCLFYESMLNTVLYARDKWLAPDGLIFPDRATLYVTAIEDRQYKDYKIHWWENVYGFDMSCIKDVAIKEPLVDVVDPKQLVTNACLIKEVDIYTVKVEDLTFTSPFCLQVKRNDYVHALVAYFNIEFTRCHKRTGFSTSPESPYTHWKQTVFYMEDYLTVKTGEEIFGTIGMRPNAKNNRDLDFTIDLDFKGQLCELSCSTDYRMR
T2 sequence (O14744 whole entry, species assumed): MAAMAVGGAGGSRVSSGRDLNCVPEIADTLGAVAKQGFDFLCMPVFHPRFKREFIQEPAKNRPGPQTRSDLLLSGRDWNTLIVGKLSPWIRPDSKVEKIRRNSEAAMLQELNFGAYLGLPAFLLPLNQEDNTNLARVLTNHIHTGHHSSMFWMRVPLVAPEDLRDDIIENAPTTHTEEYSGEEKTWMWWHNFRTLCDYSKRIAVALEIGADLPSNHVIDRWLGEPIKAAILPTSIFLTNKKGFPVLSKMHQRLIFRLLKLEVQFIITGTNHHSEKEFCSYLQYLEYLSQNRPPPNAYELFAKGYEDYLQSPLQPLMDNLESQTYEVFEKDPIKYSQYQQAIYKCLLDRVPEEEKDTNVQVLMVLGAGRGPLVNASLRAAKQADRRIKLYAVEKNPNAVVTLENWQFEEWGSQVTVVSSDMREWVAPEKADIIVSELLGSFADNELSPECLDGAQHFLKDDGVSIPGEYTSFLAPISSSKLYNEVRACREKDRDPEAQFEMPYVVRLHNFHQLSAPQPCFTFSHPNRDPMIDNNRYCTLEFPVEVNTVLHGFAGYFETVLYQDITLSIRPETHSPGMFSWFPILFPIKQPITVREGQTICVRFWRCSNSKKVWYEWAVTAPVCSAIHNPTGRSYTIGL

| SMILES | IC50 [1] | IC50 [2] | increase in potency (PRMT1 IC50) compared to the non-warhead H4-16 peptoid ([1]; warhead peptoid vs corresponding original peptoid) |
| --- | --- | --- | --- |
| CC(=O)N[C@@H](CO)C(=O)NCC(=O)N[C@@H](CCCNC(=N)CCl)C(=O)NCC(=O)N[C@@H](CCCCN)C(=O)NCC(=O)NCC(=O)N[C@@H](CCCCN)C(=O)NCC(=O)N[C@@H](CC(C)C)C(=O)NCC(=O)N[C@@H](CCCCN)C(=O)NCC(=O)NCC(=O)N[C@@H](C)C(=O)N[C@@H](CCCCN)C(N)=O [AcH4-16 warhead peptide] (Ac-SG[X2]GKGGKGLGKGGAK-NH2; C-terminus assumed) | 46.9 ± 4.86 µM |  |  |
| CC(C)C[C@H](NC(=O)CNC(=O)[C@H](CCCCN)NC(=O)CNC(=O)CNC(=O)[C@H](CCCCN)NC(=O)CNC(=O)[C@H](CCCNC(=N)CCl)NC(=O)CNC(=O)[C@@H](N)CO)C(=O)NCC(=O)N[C@@H](CCCCN)C(=O)NCC(=O)NCC(=O)N[C@@H](C)C(=O)N[C@@H](CCCCN)C(N)=O [Compound P2 Peptide] (H-SG[X2]GKGGKGLGKGGAK-NH2; N-terminus and C-terminus assumed) | 29.6 ± 5.16 µM |  |  |
| CC(=O)N(CCO)CC(=O)NCC(=O)N(CCCNC(=N)CCl)CC(=O)NCC(=O)N(CCCCN)CC(=O)NCC(=O)NCC(=O)N(CCCCN)CC(=O)NCC(=O)N(CC(=O)NCC(=O)N(CCCCN)CC(=O)NCC(=O)NCC(=O)N(C)CC(=O)N(CCCCN)CC(N)=O)CC(C)C [compound P2A] (Ac-[Gly(N-CH2CH2OH)]G[X1]G[Nlys]GG[Nlys]G[Nleu]G[Nlys]GG[Sar][Nlys]-NH2) |  | > 500 µM |  |
| CC(C)CN(CC(=O)NCC(=O)N(CCCCN)CC(=O)NCC(=O)NCC(=O)N(C)CC(=O)N(CCCCN)CC(N)=O)C(=O)CNC(=O)CN(CCCCN)C(=O)CNC(=O)CNC(=O)CN(CCCCN)C(=O)CNC(=O)CN(CCCNC(=N)CCl)C(=O)CNC(=O)CNCCO [compound P2] (H-[Gly(N-CH2CH2OH)]G[X1]G[Nlys]GG[Nlys]G[Nleu]G[Nlys]GG[Sar][Nlys]-NH2) | 8.73 ± 0.314 µM | > 500 µM | 45 fold and > 45 fold |
